Test results: US20250188420A1, “MATURING AGENT HAVING BOTH OF ALK5 INHIBITORY ACTIVITY AND CDK8/19 INHIBITORY ACTIVITY” (ORIZURU THERAPEUTICS, INC., priority 2022, published 2025)
Like-named read-outs stand apart in the source and are kept apart here.

Key:
[1] = tested on: pancreatic progenitor cell population obtained from human iPS cells (Ff-I14-s04 line); assay: induction of differentiation of pancreatic progenitor cell population into insulin-positive cell population, flow cytometry; format: cell-based
Procedure: In this testing method, the induction of differentiation of human iPS cells (Ff-I14-s04 line) into a pancreatic progenitor cell population was carried out according to the above steps 1)-4), the previous report (Stem Cell Research (2015) 14, 185-197), etc. The induction of differentiation into insulin-positive cells was carried out according to the above step 5), 6), etc.
The number of insulin-positive and NKX6.1-positive cells and the number of CHGA-positive and PDX1-positive cells in the insulin-positive cell population obtained by the above method was counted by flow cytometry to determine the respective proportions of the cells in each cell population.
The number of insulin-positive and NKX6.1-positive cells in the insulin-positive cell population obtained by the above method was counted by flow cytometry to determine the respective proportions of the cells in each cell population.

CDK8 and CDK19 (CDK8/19) = assay: binding evaluation test of kinase inhibitors against 11 kinases (FIG. 3); conditions: compared among ALK5iII and nonmutagenic ALK5 inhibitors
Procedure: Next, the nonmutagenic ALK5 inhibitors (SB431542, SB525334, IN1130, and EW-7197) were also evaluated for their inhibitory activity against these 11 kinases.

[2] = tested on: Salmonella typhimurium TA1537
Procedure: (§1) The Ames test was conducted according to a conventionally known approach. That is, each bacterial strain of Salmonella typhimurium TA100, TA1535, TA98, and TA1537 strains and an Escherichia coli WP2uvrA strain was mixed with each compound with seven concentrations (78.1 to 5,000 μg/plate), preincubated in vitro for 20 minutes, and then inoculated, together with added semifluid agar, to a minimal glucose agar medium, followed by solidification and incubation at 37° C. for 48 hours. This experiment involved no rat liver S9 fraction because the experiment was aimed at evaluating the mutagenicity of each compound in a cell culture system, not evaluating metabolites obtained after metabolisms by hepatic enzymes. […] Positivity was determined when an average number of revertant colonies in any of the bacterial strains was at least twice or more the average number of the negative control.

TGFBR2 = TGFBR2 (Homo sapiens, UniProt P37173); conditions: estimated from inhibition at 0.1 μM and 1 μM
Sequence of TGFBR2 (P37173 23-567, species assumed): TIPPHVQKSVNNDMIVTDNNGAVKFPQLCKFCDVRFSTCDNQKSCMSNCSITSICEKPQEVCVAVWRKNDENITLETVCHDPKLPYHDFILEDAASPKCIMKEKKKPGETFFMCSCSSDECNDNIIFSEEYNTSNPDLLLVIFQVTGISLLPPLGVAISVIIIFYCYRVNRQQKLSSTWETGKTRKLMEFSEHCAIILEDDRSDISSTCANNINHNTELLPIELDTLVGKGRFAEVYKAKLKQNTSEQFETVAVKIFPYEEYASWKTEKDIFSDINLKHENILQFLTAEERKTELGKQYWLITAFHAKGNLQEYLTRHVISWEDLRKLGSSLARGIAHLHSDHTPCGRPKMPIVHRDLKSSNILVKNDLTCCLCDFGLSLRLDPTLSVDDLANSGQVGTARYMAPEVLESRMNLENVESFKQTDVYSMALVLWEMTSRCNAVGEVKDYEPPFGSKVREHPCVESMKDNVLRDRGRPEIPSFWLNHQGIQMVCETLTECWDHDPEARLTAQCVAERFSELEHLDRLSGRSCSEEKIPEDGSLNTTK

CDK8 = CDK8 (Homo sapiens, UniProt P49336); conditions: estimated from inhibition at 0.1 μM and 1 μM
Sequence of CDK8 (P49336 whole entry, species assumed): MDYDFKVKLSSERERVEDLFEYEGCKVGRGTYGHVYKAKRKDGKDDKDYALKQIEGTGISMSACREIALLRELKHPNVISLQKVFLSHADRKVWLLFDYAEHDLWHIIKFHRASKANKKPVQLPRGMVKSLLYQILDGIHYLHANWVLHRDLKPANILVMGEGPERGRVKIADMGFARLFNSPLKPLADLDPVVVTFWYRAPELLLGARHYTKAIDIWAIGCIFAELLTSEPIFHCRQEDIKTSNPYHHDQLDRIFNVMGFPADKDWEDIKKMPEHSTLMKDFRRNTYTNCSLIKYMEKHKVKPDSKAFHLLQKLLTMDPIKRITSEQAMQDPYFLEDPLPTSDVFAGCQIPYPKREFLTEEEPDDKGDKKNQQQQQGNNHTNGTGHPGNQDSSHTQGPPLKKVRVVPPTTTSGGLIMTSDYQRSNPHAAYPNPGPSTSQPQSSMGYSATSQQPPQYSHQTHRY
Sequence of CDK8 (P24863 whole entry partner, species assumed): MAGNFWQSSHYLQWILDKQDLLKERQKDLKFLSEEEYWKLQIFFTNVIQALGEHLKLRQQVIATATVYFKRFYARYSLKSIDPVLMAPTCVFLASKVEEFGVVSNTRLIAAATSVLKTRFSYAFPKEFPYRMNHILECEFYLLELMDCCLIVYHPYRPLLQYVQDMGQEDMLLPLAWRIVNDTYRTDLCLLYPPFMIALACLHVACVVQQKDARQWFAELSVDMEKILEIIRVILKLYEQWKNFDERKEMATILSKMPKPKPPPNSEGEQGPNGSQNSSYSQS

[3] = tested on: insulin-positive cell population obtained from human iPS cells; assay: single-cell RNA-seq analysis of insulin-positive cell populations; format: cell-based; conditions: for typical endocrine cells (clusters #0, #1, #2, #3, and #6) in the insulin-positive cell population: 10 μM ALK5iII, 3 μM SB431542, 0.3 μM Senexin B or combination; for percentage of each cluster (#1, #3, #6, and #12) in insulin-positive and NKX6.1-positive cell subpopulation: versus population produced using ALK5iII, FIG. 5
Procedure: Subsequently, in order to compare cell composition among the respective insulin-positive cell populations produced using the inhibitors (1) to (4), single-cell RNA-seq (scRNA-seq) analysis was conducted. A library for scRNA-seq analysis was prepared using Chromium Controller and a preparation kit (Chromium Next GEM Single Cell 3′ Kits v3.1) from 10× Genomics, Inc. and sequenced using Hi-seq platform from Illumina, Inc. Data on the obtained UMI counts was analyzed using Cell Ranger and R Package Seurat from 10× Genomics, Inc. and subjected to dimensionality reduction and visualization using PCA and UMAP. Cell clustering based on the results of dimensionality reduction was carried out by clustering based on the shared nearest neighbor method of Seurat.
As a result, cell clusters #1 to #17 were identified in the respective insulin-positive cell populations produced using the inhibitors (1) to (4). […] The cells of clusters #3 and #6 had features specific for enterochromaffin cells. […] These cells can thereby be discriminated from the cells of cluster #1 adjacent thereto and are therefore considered to be relatively immature β cells. Some of the β cells might be integrated, together with α cells, δ cells, and γ cells, into cluster #0.

CDK19 = CDK19 (Homo sapiens, UniProt Q9BWU1); conditions: estimated from inhibition at 0.1 μM and 1 μM
Sequence of CDK19 (Q9BWU1 whole entry, species assumed): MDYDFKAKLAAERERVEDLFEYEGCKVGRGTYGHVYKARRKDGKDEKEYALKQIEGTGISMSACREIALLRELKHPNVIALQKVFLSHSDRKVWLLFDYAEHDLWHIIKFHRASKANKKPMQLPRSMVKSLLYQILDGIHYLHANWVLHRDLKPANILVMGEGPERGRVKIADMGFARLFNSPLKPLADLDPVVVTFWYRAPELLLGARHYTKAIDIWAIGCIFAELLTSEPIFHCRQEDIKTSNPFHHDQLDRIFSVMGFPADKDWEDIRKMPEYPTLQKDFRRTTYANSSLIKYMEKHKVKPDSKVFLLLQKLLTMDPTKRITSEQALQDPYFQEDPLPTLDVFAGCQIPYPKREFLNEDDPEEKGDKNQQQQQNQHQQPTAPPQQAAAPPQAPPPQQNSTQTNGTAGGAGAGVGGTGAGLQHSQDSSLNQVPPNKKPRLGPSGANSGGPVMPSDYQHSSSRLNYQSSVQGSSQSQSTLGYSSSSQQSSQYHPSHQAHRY
Sequence of CDK19 (P24863 whole entry partner, species assumed): as the sequence (P24863 whole entry partner, species assumed) above

TNIK = TNIK (Homo sapiens, UniProt Q9UKE5); conditions: estimated from inhibition at 0.1 μM and 1 μM
Sequence of TNIK (Q9UKE5 whole entry, species assumed): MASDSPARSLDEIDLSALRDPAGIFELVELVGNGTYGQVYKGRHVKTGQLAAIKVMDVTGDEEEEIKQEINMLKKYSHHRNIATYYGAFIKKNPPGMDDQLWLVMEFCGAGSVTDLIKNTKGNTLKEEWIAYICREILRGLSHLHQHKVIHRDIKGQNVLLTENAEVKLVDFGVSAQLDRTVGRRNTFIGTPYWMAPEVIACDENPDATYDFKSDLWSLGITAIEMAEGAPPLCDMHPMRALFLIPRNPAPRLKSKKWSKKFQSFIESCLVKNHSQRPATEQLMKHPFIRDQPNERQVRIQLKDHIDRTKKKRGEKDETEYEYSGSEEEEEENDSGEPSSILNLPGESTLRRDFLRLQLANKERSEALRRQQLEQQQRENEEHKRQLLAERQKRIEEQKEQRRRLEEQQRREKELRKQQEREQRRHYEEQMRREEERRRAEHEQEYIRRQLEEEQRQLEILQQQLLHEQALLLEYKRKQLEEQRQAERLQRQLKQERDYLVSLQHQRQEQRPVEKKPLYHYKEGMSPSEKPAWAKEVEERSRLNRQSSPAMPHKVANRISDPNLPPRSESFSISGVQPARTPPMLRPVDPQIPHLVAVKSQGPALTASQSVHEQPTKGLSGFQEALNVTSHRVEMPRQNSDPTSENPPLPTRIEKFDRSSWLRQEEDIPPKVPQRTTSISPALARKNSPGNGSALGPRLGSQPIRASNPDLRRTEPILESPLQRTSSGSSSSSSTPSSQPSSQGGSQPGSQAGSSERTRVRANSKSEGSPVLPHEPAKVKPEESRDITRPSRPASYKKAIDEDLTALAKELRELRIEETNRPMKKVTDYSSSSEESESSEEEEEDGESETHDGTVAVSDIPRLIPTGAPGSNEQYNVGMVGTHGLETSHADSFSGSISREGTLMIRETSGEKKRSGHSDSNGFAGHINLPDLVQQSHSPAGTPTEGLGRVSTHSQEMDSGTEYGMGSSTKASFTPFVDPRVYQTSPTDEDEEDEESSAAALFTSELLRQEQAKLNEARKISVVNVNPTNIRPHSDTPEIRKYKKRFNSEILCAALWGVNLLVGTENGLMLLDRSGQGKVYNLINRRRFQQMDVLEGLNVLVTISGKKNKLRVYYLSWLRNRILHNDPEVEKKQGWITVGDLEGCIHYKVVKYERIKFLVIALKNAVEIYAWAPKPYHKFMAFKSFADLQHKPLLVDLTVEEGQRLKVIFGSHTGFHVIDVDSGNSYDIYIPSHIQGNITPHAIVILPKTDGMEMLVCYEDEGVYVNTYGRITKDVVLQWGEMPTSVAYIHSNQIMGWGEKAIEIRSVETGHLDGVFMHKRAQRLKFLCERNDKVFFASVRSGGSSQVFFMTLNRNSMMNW

[4] = tested on: 11 kinases including CDK8 and CDK19; conditions: 11 of approximately 350 recombinant kinases
RIPK2 = RIPK2 (Homo sapiens, UniProt O43353); conditions: estimated from inhibition at 0.1 μM and 1 μM
Sequence of RIPK2 (O43353 whole entry, species assumed): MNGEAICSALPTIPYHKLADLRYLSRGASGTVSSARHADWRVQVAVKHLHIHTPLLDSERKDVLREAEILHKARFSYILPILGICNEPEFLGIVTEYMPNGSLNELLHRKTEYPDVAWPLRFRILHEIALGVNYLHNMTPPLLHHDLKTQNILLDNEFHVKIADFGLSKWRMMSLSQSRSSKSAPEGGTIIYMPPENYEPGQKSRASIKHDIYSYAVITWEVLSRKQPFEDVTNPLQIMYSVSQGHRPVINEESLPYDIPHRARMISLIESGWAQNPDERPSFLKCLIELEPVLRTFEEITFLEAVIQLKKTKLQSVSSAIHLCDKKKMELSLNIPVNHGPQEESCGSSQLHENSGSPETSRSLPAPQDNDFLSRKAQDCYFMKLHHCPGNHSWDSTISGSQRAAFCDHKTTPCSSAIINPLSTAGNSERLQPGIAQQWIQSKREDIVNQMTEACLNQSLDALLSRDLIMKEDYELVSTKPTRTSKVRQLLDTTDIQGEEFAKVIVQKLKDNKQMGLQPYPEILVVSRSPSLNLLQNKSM

[5] = tested on: Salmonella typhimurium TA100, TA1535, TA98, and TA1537 strains and an Escherichia coli WP2uvrA strain; assay: Ames test (mutagenicity evaluation); conditions: no S9 fraction; FIG. 1
Procedure: as §1

[6] = tested on: pancreatic progenitor cell population obtained from human iPS cells (Ff-I14-s04 line); assay: induction of differentiation of pancreatic progenitor cell population into insulin-positive cell population, flow cytometry; format: cell-based; conditions: Example 3; 3 μM SB431542, 0.3 μM Senexin B or both; versus 10 μM ALK5iII, FIG. 4B
ALK5 = biological target: T1, ALK5 (Homo sapiens, UniProt P36897); assay: ALK5-inhibiting activity (FIG. 1); format: biochemical
T1 sequence (P36897 34-503): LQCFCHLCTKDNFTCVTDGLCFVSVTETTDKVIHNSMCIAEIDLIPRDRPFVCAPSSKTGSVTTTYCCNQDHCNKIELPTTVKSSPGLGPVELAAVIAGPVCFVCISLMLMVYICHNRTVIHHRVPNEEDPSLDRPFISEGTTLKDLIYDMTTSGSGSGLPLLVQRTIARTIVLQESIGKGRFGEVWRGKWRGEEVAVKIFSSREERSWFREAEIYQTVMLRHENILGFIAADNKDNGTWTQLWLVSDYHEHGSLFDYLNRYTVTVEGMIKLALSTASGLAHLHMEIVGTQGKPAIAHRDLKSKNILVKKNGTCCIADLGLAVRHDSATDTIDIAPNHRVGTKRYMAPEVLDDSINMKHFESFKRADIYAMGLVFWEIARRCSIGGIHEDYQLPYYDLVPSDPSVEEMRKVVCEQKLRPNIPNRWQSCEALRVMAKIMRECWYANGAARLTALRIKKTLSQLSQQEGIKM

[7] = Example 2, SB525334 10 μM, SB431542 10 μM, IN1130 1 μM, EW-7197 1 μM, versus control medium (−)
[8] = Example 3, 3 μM SB431542, 0.3 μM Senexin B or both, versus 10 μM ALK5iII, FIG. 4A

## Cc1cccc(-c2nc(Cc3cccc(C(N)=O)c3)[nH]c2-c2ccc3nccnc3c2)n1 [IN1130, 3-[[5-(6-Methyl-2-pyridinyl)-4-(6-quinoxalinyl)-1H-imidazol-2-yl]methyl]benzamide]
[1]; [7]
  proportion of CHGA-positive and PDX1-positive cells: equivalent to the control
  proportion of insulin-positive and NKX6.1-positive cells: equivalent to the control
CDK8 and CDK19 (CDK8/19)
  inhibitory activity against CDK8 and CDK19 (CDK8/19): unique to ALK5iII

## Cl.Nc1c2ccccc2nc2ccccc12.O [Compound 9-AA, 9-aminoacridine hydrochloride monohydrate]
[2]; TA1537, -S9, positive control, 80 μg (ALK5 i II experiment)
  # of colony: 169

## Cc1cccc(-c2n[nH]cc2-c2ccc3ncccc3n2)n1 [ALK5iII, 2-(3-(6-methylpyridin-2-yl)-1H-pyrazol-4-yl)-1,5-naphthyridine]
TGFBR2
  Estimate pIC50 value: 6.97 ± 0.12
[2]
  Ames test determination: positive
CDK8
  Estimate pIC50 value: 6.80 ± 0.40
[3]; scRNA-seq
  typical endocrine cells (clusters #0, #1, #2, #3, and #6) in the insulin-positive cell population: found with almost no exception
CDK19
  Estimate pIC50 value: 7.18 ± 0.50
TNIK
  Estimate pIC50 value: 6.18 ± 0.14
[4]
  estimate pIC50 value against 11 kinases: more than 6
RIPK2
  Estimate pIC50 value: 6.82 ± 0.05
CDK8 and CDK19 (CDK8/19)
  inhibitory activity against CDK8 and CDK19 (CDK8/19): unique to ALK5iII

## Cc1cccc(-c2[nH]c(CNc3ccccc3F)nc2-c2ccc3ncnn3c2)n1 [EW-7197]
[1]; [7]
  proportion of CHGA-positive and PDX1-positive cells: equivalent to the control
  proportion of insulin-positive and NKX6.1-positive cells: equivalent to the control
CDK8 and CDK19 (CDK8/19)
  inhibitory activity against CDK8 and CDK19 (CDK8/19): unique to ALK5iII

## NC(=O)c1ccc(-c2nc(-c3ccc4c(c3)OCO4)c(-c3ccccn3)[nH]2)cc1 [SB431542, 4-[4-(1,3-Benzodioxol-5-yl)-5-(2-pyridinyl)-1H-imidazol-2-yl]-benzamide]
[1]; [7]
  proportion of CHGA-positive and PDX1-positive cells: equivalent to the control
  proportion of insulin-positive and NKX6.1-positive cells: equivalent to the control
[1]; [8]
  proportion of insulin-positive and NKX6.1-positive cells: lower values
[5]
  mutagenicity / Ames test determination: no mutagenicity
[3]; scRNA-seq
  clusters #5, #9, #10, #12, and #13: specialized
  typical endocrine cells (clusters #0, #1, #2, #3, and #6) in the insulin-positive cell population: not found
[3]
  percentage of each cluster (#1, #3, #6, and #12) in insulin-positive and NKX6.1-positive cell subpopulation: different
[6]
  total cell yield: lower values
CDK8 and CDK19 (CDK8/19)
  inhibitory activity against CDK8 and CDK19 (CDK8/19): unique to ALK5iII

## Cc1cccc(-c2nc(C(C)(C)C)[nH]c2-c2ccc3nccnc3c2)n1 [SB525334, 6-[2-tert-Butyl-5-(6-methylpyridin-2-yl)-1H-imidazol-4-yl]quinoxaline]
[1]; [7]
  proportion of CHGA-positive and PDX1-positive cells: equivalent to the control
  proportion of insulin-positive and NKX6.1-positive cells: equivalent to the control
[5]
  mutagenicity / Ames test determination: no mutagenicity
CDK8 and CDK19 (CDK8/19)
  inhibitory activity against CDK8 and CDK19 (CDK8/19): unique to ALK5iII

## c1cncc(-c2n[nH]cc2-c2cnc3ccccc3n2)c1 [2-(3-(pyridin-3-yl)-1H-pyrazol-4-yl)quinoxaline]
[2]; TA1537, -S9, 78.1 μg/plate
  # of colony: 5
[2]; TA1537, -S9, 156 μg/plate
  # of colony: 9
[2]; TA1537, -S9, 313 μg/plate
  # of colony: 21
[2]; TA1537, -S9, 625 μg/plate
  # of colony: 45
[2]; TA1537, -S9, 1250 μg/plate
  # of colony: 82
[2]; TA1537, -S9, 2500 μg/plate
  # of colony: 128
[2]; TA1537, -S9, 5000 μg/plate
  # of colony: 194
[5]
  mutagenicity / Ames test determination: positive
ALK5
  ALK5-inhibiting activity: no ALK5-inhibiting activity

## COc1ccc2nc3cc(Cl)ccc3c(NCCCNCCCl)c2c1 [ICR 191]
[2]; TA1537, -S9, positive control, 1.0 μg (quinoxaline analog experiment)
  # of colony: 1804

## CN1CCN(C(=O)c2ccc3cc(CCNc4ncnc5ccc(C#N)cc45)ccc3c2)CC1 [Senexin B, 4-((2-(6-(4-Methylpiperazine-1-carbonyl)naphthalen-2-yl)ethyl)amino)quinazoline-6-carbonitrile]
[1]; [8]
  proportion of insulin-positive and NKX6.1-positive cells: higher percentage
[3]; scRNA-seq
  typical endocrine cells (clusters #0, #1, #2, #3, and #6) in the insulin-positive cell population: found with almost no exception
[3]
  percentage of each cluster (#1, #3, #6, and #12) in insulin-positive and NKX6.1-positive cell subpopulation: different
[6]
  total cell yield: lower value
